In patent publication US20230089073A1 (Carmot Therapeutics, Inc., priority 2021, published 2023):

Target: T1, human GLP-1 receptor (Homo sapiens, UniProt P43220)
T1 construct: expressed in transfected cells
Assay: GLP-1R cAMP Assay
Type: cell-based
Conditions: cAMP accumulation in CHO cells stably overexpressing the human GLP-1 receptor; 30 min treatment; HitHunter cAMP kit; read-out: EC50
Outline: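 Luminescent enzyme-complementation detection of cAMP, read after cell lysis and overnight incubation, with dose-response curve fitting. Stimulation lasted 30 min, using 20-point triplicate dosing on CHO cells (10,000 per well) stably overexpressing human GLP-1R.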

T1 sequence (P43220 24-463): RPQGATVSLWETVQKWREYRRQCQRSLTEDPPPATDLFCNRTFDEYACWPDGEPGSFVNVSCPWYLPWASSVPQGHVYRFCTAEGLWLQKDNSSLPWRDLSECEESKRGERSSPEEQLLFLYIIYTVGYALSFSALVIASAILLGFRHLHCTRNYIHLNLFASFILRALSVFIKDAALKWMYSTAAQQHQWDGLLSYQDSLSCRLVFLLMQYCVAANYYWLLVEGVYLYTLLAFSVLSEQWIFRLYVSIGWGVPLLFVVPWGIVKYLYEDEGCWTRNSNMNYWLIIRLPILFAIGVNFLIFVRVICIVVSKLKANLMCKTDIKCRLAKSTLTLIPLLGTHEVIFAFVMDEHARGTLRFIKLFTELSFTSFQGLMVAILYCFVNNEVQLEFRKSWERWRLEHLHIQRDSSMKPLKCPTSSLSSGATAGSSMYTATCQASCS

Row | EC50 [nM] | SMILES
1 | > 500 | O=C(O)c1ccc2nc(CN3CCC(Oc4ccccc4COc4ccc(Cl)cc4Cl)CC3)n(C[C@@H]3CCO3)c2c1 [Compound 284, 2-[(4-{2-[(2,4-dichlorophenoxy)methyl]phenoxy}piperidin-1-yl)methyl]-1-{[(2S)-oxetan-2-yl]methyl}-1H-1,3-benzodiazole-6-carboxylic acid]
2 | < 50 | CCn1cncc1Cn1c(CN2CCC(Oc3cc(COc4ccc(Cl)cc4Cl)ccn3)CC2)nc2ccc(C(=O)O)cc21 [Compound 179, 2-{[4-({4-[(2,4-dichlorophenoxy)methyl]pyridin-2-yl}oxy)piperidin-1-yl]methyl}-1-[(1-ethyl-1H-imidazol-5-yl)methyl]-1H-1,3-benzodiazole-6-carboxylic acid]
3 | < 50 | O=C(O)c1ccc2nc(CN3CCC(Oc4ccnc(COc5ccc(Cl)cc5F)c4)CC3)n(CC34CC(CO3)C4)c2c1 [Compound 333]
4 | < 50 | C[C@H]1C[C@@H](Oc2ccnc(COc3ccc(C#N)cc3F)n2)CCN1Cc1nc2c(F)cc(C(=O)O)cc2n1C[C@@H]1CCO1 [Compound 323]
5 | < 50 | C[C@H]1C[C@@H](Oc2ccnc(COc3ccc(F)cc3F)c2)CCN1Cc1nc2ccc(C(=O)O)cc2n1C[C@@H]1CCO1 [Compound 497, 2-{[(2S,4S)-4-({2-[(2,4-difluorophenoxy)methyl]pyridin-4-yl}oxy)-2-methylpiperidin-1-yl]methyl}-1-{[(2S)-oxetan-2-yl]methyl}-1H-1,3-benzodiazole-6-carboxylic acid]
6 | < 50 | C[C@H]1C[C@@H](Oc2ccnc(COc3ccc(C#N)cc3F)c2)CCN1Cc1nc2c(F)cc(C(=O)O)cc2n1C[C@@H]1CCO1 [Compound 501, 2-{[(2S,4S)-4-({2-[(4-cyano-2-fluorophenoxy)methyl]pyridin-4-yl}oxy)-2-methylpiperidin-1-yl]methyl}-4-fluoro-1-{[(2S)-oxetan-2-yl]methyl}-1H-1,3-benzodiazole-6-carboxylic acid]
7 | > 500 | Cc1ccccc1OCc1ccc(C(=O)N2CCN(Cc3nc4ccc(C(=O)O)cc4n3C[C@@H]3CCO3)CC2)o1 [Compound 43, 2-[(4-{5-[(2-methylphenoxy)methyl]furan-2-carbonyl}piperazin-1-yl)methyl]-1-{[(2S)-oxetan-2-yl]methyl}-1H-1,3-benzodiazole-6-carboxylic acid]
8 | < 50 | C[C@H]1C[C@@H](Oc2ccnc(COc3ccc(Cl)cc3C#N)n2)CCN1Cc1nc2ccc(C(=O)O)cc2n1C[C@@H]1CCO1 [Compound 489, 2-{[(2S,4S)-4-({2-[(4-chloro-2-cyanophenoxy)methyl]pyrimidin-4-yl}oxy)-2-methylpiperidin-1-yl]methyl}-1-{[(2S)-oxetan-2-yl]methyl}-1H-1,3-benzodiazole-6-carboxylic acid]
9 | > 500 | O=C(O)c1ccc2nc(CN3CCc4[nH]c5ccc(OC(F)(F)F)cc5c4C3)n(C[C@@H]3CCO3)c2c1 [Compound 53, 1-{[(2S)-oxetan-2-yl]methyl}-2-{[8-(trifluoromethoxy)-1H,2H,3H,4H,5H-pyrido[4,3-b]indol-2-yl]methyl}-1H-1,3-benzodiazole-6-carboxylic acid]
10 | 50 to 500 | O=C(O)c1ccc2nc(CN3CCC(Cc4cnc(COc5cnc(C6CC6)cc5Cl)o4)CC3)n(C[C@@H]3CCO3)c2c1 [Example 154, (S)-2-((4-((2-(((4-Chloro-6-cyclopropylpyridin-3-yl)oxy)methyl)oxazol-5-yl)methyl)piperidin-1-yl)methyl)-1-(oxetan-2-ylmethyl)-1H-benzo[d]imidazole-6-carboxylic acid]
11 | < 50 | O=C(O)c1ccc2nc(CN3CCC(Cc4cccc(OCc5ccc(Cl)cc5Cl)n4)CC3)n(C[C@@H]3CCO3)c2c1 [Compound 200, 2-{[4-({6-[(2,4-dichlorophenyl)methoxy]pyridin-2-yl}methyl)piperidin-1-yl]methyl}-1-{[(2S)-oxetan-2-yl]methyl}-1H-1,3-benzodiazole-6-carboxylic acid]
12 | < 50 | Cc1ccc(OCc2cccc(CC3CCN(Cc4nc5ccc(C(=O)O)cc5n4C[C@@H]4CCO4)CC3)n2)c(Cl)c1 [Compound 118, 2-{[4-({6-[(2-chloro-4-methylphenoxy)methyl]pyridin-2-yl}methyl)piperidin-1-yl]methyl}-1-{[(2S)-oxetan-2-yl]methyl}-1H-1,3-benzodiazole-6-carboxylic acid]
13 | < 50 | N#Cc1ccc(OCc2ncc(F)c(OC3CCN(Cc4nc5ccc(C(=O)O)cc5n4C[C@@H]4CCO4)CC3)n2)c(F)c1 [Compound 374]
14 | < 50 | O=C(O)c1cc(F)c2nc(CN3CCC(Oc4ccnc(COc5ccc(C(F)F)cc5F)c4)CC3)n(C[C@@H]3CCO3)c2c1 [Compound 302]
15 | > 500 | O=C(O)c1ccc2nc(CN3CCN(C(=O)c4ccc(COc5ccc(Cl)cc5)o4)CC3)n(C[C@@H]3CCO3)c2c1 [Compound 31, 2-[(4-{5-[(4-chlorophenoxy)methyl]furan-2-carbonyl}piperazin-1-yl)methyl]-1-{[(2S)-oxetan-2-yl]methyl}-1H-1,3-benzodiazole-6-carboxylic acid]
16 | < 50 | CCn1cncc1Cn1c(CN2CC[C@@H](Cc3cnc(COc4ccc(Cl)cc4Cl)o3)C[C@@H]2C)nc2ccc(C(=O)O)cc21 [Compound 278, 2-{[(2S,4R)-4-({2-[(2,4-dichlorophenoxy)methyl]-1,3-oxazol-5-yl}methyl)-2-methylpiperidin-1-yl]methyl}-1-[(1-ethyl-1H-imidazol-5-yl)methyl]-1H-1,3-benzodiazole-6-carboxylic acid]
17 | < 50 | O=C(O)c1ccc2nc(CN3CCC(Cc4cnc(COc5ccc(Cl)cc5Cl)o4)CC3)n(C[C@@H]3CCO3)c2n1 [Compound 129, 2-{[4-({2-[(2,4-dichlorophenoxy)methyl]-1,3-oxazol-5-yl}methyl)piperidin-1-yl]methyl}-3-{[(2S)-oxetan-2-yl]methyl}-3H-imidazo[4,5-b]pyridine-5-carboxylic acid]
18 | > 500 | O=C(c1ccc(-c2nnn[nH]2)nc1)N1CCN(Cc2ccc(COc3ccc(Cl)cc3Cl)o2)CC1 [Compound 97, 1-({5-[(2,4-dichlorophenoxy)methyl]furan-2-yl}methyl)-4-[6-(1H-1,2,3,4-tetrazol-5-yl)pyridine-3-carbonyl]piperazine]
19 | < 50 | O=C(O)c1ccc2nc(CN3CCC(Cc4cccc(COc5ccc(Cl)cc5Cl)c4)CC3)n(C[C@H]3CCOC3)c2c1 [Compound 148, 2-{[4-({3-[(2,4-dichlorophenoxy)methyl]phenyl}methyl)piperidin-1-yl]methyl}-1-{[(3R)-oxolan-3-yl]methyl}-1H-1,3-benzodiazole-6-carboxylic acid]
20 | < 50 | CCn1cncc1Cn1c(CN2CCC(Cc3cccc(COc4ccc(C5CC5)cc4Cl)n3)CC2)nc2ccc(C(=O)O)cc21 [Compound 153, 2-{[4-({6-[(2-chloro-4-cyclopropylphenoxy)methyl]pyridin-2-yl}methyl)piperidin-1-yl]methyl}-1-[(1-ethyl-1H-imidazol-5-yl)methyl]-1H-1,3-benzodiazole-6-carboxylic acid]
21 | < 50 | O=C(O)c1cc(F)c2nc(CN3CCC(Oc4cccc(COc5ccc(C(F)F)cc5F)c4)CC3)n(CC3(CF)CC3)c2c1 [Compound 303]
22 | < 50 | Cn1cncc1Cn1c(CN2CCC(Oc3ccnc(COc4ccc(Cl)cc4C#N)c3)CC2)nc2ccc(C(=O)O)cc21 [Compound 259, 2-{[4-({2-[(4-chloro-2-cyanophenoxy)methyl]pyridin-4-yl}oxy)piperidin-1-yl]methyl}-1-[(1-methyl-1H-imidazol-5-yl)methyl]-1H-1,3-benzodiazole-6-carboxylic acid]
23 | < 50 | CCn1cncc1Cn1c(CN2CCC(Cc3cccc(COc4ccc(C)cc4Cl)n3)CC2)nc2ccc(C(=O)O)cc21 [Compound 120, 2-{[4-({6-[(2-chloro-4-methylphenoxy)methyl]pyridin-2-yl}methyl)piperidin-1-yl]methyl}-1-[(1-ethyl-1H-imidazol-5-yl)methyl]-1H-1,3-benzodiazole-6-carboxylic acid]
24 | < 50 | C[C@H]1C[C@@H](Oc2ccnc(COc3cc(F)c(F)cc3F)n2)CCN1Cc1nc2ccc(C(=O)O)cc2n1C[C@@H]1CCO1 [Compound 514, 2-{[(2S,4S)-2-methyl-4-({2-[(2,4,5-trifluorophenoxy)methyl]pyrimidin-4-yl}oxy)piperidin-1-yl]methyl}-1-{[(2S)-oxetan-2-yl]methyl}-1H-1,3-benzodiazole-6-carboxylic acid]
25 | < 50 | CCn1cncc1Cn1c(CN2CCC(Oc3cccc(COc4ccc(Cl)cc4C#N)n3)CC2)nc2ccc(C(=O)O)cc21 [Compound 246, 2-{[4-({6-[(4-chloro-2-cyanophenoxy)methyl]pyridin-2-yl}oxy)piperidin-1-yl]methyl}-1-[(1-ethyl-1H-imidazol-5-yl)methyl]-1H-1,3-benzodiazole-6-carboxylic acid]
26 | < 50 | N#Cc1ccc(OCc2nccc(OC3CCN(Cc4nc5ccc(C(=O)O)cc5n4CC4(CF)CC4)CC3)n2)c(F)c1 [Compound 343]
27 | < 50 | Cc1ccc(Oc2cc(C(=O)N3CCN(Cc4nc5ccc(C(=O)O)cc5n4C[C@@H]4CCO4)CC3)ncn2)cc1 [Example 34, (S)-1-(Oxetan-2-ylmethyl)-2-((4-(6-(p-tolyloxy)pyrimidine-4-carbonyl)piperazin-1-yl)methyl)-1H-benzo[d]imidazole-6-carboxylic acid]
28 | < 50 | O=C(O)c1ccc2nc(CN3CCC(Oc4ccnc(COc5ccc(C6CC6)cc5F)n4)CC3)n(C[C@@H]3CCO3)c2c1 [Compound 475, 2-{[4-({2-[(4-cyclopropyl-2-fluorophenoxy)methyl]pyrimidin-4-yl}oxy)piperidin-1-yl]methyl}-1-{[(2S)-oxetan-2-yl]methyl}-1H-1,3-benzodiazole-6-carboxylic acid]
29 | 50 to 500 | O=C(O)c1ccc2nc(CN3CCC(Cc4cc(F)cc(COc5ccc(Cl)cc5Cl)c4)CC3)n(C[C@@H]3CCO3)c2c1 [Compound 126, 2-{[4-({3-[(2,4-dichlorophenoxy)methyl]-5-fluorophenyl}methyl)piperidin-1-yl]methyl}-1-{[(2S)-oxetan-2-yl]methyl}-1H-1,3-benzodiazole-6-carboxylic acid]
